Laboratory results from the kinase profiling compilation of Christmann-Franck et al. (2016).

Legend:
Assay in all cases: KINOMEscan competition binding
MAP3K12 (human) = MAP3K12 (human) (UniProt Q12852); settings: compound 10.0 µM
RPS6KA1 KD1 (human) = RPS6KA1 KD1 (human) (UniProt Q15418); settings: compound 10.0 µM
MYLK3 (human) = MYLK3 (human) (UniProt Q32MK0); settings: compound 10.0 µM
CDK19 (human) = CDK19 (human) (UniProt Q9BWU1); settings: compound 10.0 µM
CSNK1G2 (human) = CSNK1G2 (human) (UniProt P78368); settings: compound 10.0 µM
MAP3K5 (human) = MAP3K5 (human) (UniProt Q99683); settings: compound 10.0 µM
ULK3 (mouse) = settings: compound 10.0 µM; accession and sequence are those of the human protein

Chain of MAP3K12 (human) (Q12852 whole entry, looked up): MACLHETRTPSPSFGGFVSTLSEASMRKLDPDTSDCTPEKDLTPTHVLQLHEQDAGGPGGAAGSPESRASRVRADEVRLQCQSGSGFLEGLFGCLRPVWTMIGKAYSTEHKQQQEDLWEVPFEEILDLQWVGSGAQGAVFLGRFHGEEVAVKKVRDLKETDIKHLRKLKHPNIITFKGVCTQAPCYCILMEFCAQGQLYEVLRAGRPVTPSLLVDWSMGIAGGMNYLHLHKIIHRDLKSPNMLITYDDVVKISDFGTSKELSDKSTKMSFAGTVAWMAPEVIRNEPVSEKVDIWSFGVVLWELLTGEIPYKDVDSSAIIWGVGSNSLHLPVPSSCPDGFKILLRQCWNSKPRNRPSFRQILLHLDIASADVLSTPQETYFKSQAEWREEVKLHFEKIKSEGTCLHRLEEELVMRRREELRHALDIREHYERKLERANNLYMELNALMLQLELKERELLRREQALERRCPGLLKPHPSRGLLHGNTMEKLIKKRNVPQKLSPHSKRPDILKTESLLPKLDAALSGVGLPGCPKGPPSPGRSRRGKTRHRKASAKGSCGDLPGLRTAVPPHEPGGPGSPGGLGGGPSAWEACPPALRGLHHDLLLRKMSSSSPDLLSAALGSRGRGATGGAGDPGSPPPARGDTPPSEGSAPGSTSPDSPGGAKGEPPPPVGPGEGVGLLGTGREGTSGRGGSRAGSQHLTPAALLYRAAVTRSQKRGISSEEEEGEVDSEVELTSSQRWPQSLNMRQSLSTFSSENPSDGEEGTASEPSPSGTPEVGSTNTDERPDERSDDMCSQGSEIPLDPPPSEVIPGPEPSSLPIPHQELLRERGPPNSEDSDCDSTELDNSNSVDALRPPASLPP
Chain of RPS6KA1 KD1 (human) (Q15418 whole entry, looked up): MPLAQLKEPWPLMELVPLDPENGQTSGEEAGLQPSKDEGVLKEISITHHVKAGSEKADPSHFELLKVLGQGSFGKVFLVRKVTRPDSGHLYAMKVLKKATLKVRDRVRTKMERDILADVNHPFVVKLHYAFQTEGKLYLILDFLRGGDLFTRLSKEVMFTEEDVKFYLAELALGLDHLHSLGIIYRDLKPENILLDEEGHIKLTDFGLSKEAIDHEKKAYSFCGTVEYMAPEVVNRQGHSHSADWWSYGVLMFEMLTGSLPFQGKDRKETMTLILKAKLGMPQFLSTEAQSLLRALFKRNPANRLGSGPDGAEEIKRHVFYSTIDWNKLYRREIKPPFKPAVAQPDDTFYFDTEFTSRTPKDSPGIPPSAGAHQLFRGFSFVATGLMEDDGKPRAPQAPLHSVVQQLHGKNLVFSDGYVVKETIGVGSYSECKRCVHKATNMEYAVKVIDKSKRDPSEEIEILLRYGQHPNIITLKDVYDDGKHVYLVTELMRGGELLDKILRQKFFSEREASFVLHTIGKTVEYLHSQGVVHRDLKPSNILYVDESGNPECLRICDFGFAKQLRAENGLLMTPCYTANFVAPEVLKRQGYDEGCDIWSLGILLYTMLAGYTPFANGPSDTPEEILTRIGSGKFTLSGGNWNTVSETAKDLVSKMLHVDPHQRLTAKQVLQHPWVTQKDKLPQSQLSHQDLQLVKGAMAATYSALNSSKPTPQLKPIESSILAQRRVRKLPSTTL
Chain of MAP3K5 (human) (Q99683 whole entry, looked up): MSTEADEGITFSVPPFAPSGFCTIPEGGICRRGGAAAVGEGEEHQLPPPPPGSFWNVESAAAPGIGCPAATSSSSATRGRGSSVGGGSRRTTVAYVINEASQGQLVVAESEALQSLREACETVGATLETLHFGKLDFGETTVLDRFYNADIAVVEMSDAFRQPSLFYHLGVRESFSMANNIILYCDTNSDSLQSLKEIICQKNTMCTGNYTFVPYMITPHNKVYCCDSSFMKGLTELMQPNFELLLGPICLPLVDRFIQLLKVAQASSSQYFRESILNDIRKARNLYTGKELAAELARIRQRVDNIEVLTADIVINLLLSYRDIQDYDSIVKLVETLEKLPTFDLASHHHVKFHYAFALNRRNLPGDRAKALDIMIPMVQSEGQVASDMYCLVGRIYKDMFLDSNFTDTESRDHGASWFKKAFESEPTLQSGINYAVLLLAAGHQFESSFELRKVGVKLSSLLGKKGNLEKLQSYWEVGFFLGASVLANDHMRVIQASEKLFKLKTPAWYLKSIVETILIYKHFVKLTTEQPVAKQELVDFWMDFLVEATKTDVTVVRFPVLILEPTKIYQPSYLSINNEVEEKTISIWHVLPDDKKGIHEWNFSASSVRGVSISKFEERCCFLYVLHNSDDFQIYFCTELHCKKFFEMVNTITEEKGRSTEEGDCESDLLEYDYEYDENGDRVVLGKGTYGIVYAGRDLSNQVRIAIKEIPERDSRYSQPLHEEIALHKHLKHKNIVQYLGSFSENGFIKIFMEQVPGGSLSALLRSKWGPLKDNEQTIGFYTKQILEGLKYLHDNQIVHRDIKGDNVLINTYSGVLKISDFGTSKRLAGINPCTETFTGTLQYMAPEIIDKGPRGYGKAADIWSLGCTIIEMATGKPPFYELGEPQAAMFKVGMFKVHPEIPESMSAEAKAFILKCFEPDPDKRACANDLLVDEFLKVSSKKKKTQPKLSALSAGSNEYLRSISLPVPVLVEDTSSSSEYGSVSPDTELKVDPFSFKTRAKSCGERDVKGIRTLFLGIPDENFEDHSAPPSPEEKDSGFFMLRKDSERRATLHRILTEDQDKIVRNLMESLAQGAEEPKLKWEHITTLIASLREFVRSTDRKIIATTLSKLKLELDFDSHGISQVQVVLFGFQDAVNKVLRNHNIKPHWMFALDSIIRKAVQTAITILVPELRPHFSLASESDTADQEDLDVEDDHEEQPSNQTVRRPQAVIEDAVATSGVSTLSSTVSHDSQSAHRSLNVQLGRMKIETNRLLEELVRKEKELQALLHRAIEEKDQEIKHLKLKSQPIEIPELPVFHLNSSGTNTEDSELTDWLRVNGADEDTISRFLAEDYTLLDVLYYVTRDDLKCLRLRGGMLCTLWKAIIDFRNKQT
Chain of MYLK3 (human) (Q32MK0 whole entry, looked up): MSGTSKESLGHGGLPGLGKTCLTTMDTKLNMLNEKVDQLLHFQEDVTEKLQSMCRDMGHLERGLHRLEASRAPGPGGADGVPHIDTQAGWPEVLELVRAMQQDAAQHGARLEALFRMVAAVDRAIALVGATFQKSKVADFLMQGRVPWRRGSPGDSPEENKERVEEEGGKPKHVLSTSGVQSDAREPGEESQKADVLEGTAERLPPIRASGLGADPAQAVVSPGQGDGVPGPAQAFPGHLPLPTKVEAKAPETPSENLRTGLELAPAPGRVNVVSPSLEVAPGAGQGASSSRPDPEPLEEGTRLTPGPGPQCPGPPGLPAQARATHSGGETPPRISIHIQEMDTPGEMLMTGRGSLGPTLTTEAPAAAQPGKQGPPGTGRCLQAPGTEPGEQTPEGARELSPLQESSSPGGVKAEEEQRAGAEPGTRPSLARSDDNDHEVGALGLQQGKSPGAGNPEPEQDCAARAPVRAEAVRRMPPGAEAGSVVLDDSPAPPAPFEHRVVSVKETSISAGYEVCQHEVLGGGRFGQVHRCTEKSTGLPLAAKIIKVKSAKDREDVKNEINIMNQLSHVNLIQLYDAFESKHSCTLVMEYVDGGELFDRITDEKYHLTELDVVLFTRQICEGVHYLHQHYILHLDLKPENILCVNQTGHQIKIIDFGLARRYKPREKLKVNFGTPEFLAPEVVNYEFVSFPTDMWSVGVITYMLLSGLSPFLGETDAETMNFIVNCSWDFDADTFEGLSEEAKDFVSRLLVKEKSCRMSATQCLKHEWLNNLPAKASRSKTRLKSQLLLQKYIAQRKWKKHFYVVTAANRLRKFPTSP
Chain of CDK19 (human) (Q9BWU1 whole entry, looked up): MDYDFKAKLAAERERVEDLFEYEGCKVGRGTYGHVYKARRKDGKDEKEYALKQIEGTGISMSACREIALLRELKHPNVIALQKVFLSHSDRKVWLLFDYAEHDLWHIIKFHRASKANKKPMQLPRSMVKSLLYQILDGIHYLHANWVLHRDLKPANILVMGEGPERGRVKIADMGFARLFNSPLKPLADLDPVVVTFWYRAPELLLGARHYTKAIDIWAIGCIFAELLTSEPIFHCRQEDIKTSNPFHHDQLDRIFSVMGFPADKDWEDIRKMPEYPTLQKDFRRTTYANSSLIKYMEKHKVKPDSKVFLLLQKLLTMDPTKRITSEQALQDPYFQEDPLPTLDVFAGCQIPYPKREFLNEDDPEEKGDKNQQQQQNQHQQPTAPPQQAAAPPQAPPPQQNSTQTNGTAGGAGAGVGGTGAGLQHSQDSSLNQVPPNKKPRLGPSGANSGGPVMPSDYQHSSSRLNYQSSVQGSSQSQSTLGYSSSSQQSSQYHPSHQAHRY
Chain of CSNK1G2 (human) (P78368 whole entry, looked up): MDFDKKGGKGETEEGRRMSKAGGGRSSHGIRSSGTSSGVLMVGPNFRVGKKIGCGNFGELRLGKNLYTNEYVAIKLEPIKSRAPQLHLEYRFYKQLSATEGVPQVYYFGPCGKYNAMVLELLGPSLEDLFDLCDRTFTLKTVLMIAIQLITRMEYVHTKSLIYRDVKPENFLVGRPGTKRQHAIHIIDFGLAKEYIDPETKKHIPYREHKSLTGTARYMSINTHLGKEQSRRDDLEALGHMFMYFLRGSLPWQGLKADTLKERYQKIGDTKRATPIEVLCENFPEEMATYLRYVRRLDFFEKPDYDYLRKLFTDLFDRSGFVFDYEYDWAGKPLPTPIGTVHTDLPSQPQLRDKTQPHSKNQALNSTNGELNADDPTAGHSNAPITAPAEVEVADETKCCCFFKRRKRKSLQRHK

| Compound | inhibition (MAP3K12 (human)) [%] | inhibition of binding (RPS6KA1 KD1 (human)) [%] | inhibition of binding (ULK3 (mouse)) [%] | also measured |
| --- | --- | --- | --- | --- |
| O[C@H]1CC[C@H](Nc2nccc(-n3ncc4ccccc43)n2)CC1 | < 50 | < 50 | – | inhibition of binding (MYLK3 (human)): < 50%; inhibition (CDK19 (human)): < 50% |
| O[C@H]1CC[C@H](Nc2nccc(-n3nnc4ccccc43)n2)CC1 | < 50 | < 50 | – | inhibition of binding (CSNK1G2 (human)): < 50% |
| O[C@H]1CC[C@H](Nc2nccc(-c3n[nH]c4ccccc34)n2)CC1 | – | – | – | inhibition of binding (MAP3K5 (human)): < 50% |
| O[C@H]1CC[C@H](Nc2nccc(-n3ccc4ccccc43)n2)CC1 | < 50 | < 50 | – | – |
| N[C@H]1CC[C@H](Nc2nccc(-n3nnc4ccccc43)n2)CC1 | – | – | < 50 | – |
| O=C([C@H]1CC[C@H](Nc2nccc(-n3nnc4ccccc43)n2)CC1)N1CCOCC1 | – | – | < 50 | – |
